In this experiment the test system is peripheral blood mononuclear cells (PBMC) stimulated with allogeneic PBMC or EBV-transformed human B cells (RPMI1788). Nature of the experiment: Mixed lymphocyte reaction (MLR) assay. Type of experiment: cell-based. The settings on record: Homo sapiens, RPMI-1788; MLR assay of example 319; read-out: MLR IC50. A digest of the protocol: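 Responder PBMC co-cultured in triplicate with 30 Gy-irradiated allogeneic PBMC or RPMI1788 B cells plus compound (DMSO stock 10 mM, diluted in medium). After 5 days at 37° C, 1 μCi [3H]-thymidine added for 16 h more; incorporated cpm counted and proliferation inhibition calculated.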
Take `COc1cc(-c2ccc3nc(N)nc(N4CCN(C(=O)COc5ccc(Cl)cc5)CC4)c3n2)ccc1O` [Example 496, 2-amino-4-[N-(4-chlorophenoxyacetyl)-piperazin-1-yl]-6-(3-methoxy-4-hydroxyphenyl)-pyrido(3,2-d)pyrimidine]: the IC50 is 71 nM.

Turning to `Nc1nc(N2CCN(C(=O)COc3ccc(Cl)cc3)CC2)c2nc(-c3ccc4c(c3)CCO4)ccc2n1` [Example 497, 2-amino-4-[N-(4-chlorophenoxyacetyl)-piperazin-1-yl]-6-(2,3-dihydro-1-benzofuran-5-yl)-pyrido(3,2-d)pyrimidine], the IC50 was 210 nM.

For the compound `Cc1cccc(-c2ccc3nc(N)nc(N4CCN(C(=O)COc5ccc(Cl)cc5)CC4)c3n2)c1` [Example 498, 2-amino-4-[N-(4-chlorophenoxyacetyl)-piperazin-1-yl]-6-(3-methyl-phenyl)-pyrido(3,2-d)pyrimidine], the IC50 was 8 nM.

Regarding `N#CCc1ccc(-c2ccc3nc(N)nc(N4CCN(C(=O)COc5ccc(Cl)cc5)CC4)c3n2)cc1` [Example 499, 2-amino-4-[N-(4-chlorophenoxyacetyl)-piperazin-1-yl]-6-(4-cyanomethyl-phenyl)-pyrido(3,2-d)pyrimidine], the IC50 came to 11 nM.

Consider `COCc1cccc(-c2ccc3nc(N)nc(N4CCN(C(=O)COc5ccc(Cl)cc5)CC4)c3n2)c1` [Example 500, 2-amino-4-[N-(4-chlorophenoxyacetyl)-piperazin-1-yl]-6-(3-methoxy-methylphenyl)-pyrido(3,2-d)pyrimidine], for which the IC50 is 31 nM.

With `COc1cc(-c2ccc3nc(N)nc(N4CCN(C(=O)COc5ccc(Cl)cc5)CC4)c3n2)ccc1OCc1ccccc1` [Example 501, 2-amino-4-[N-(4-chlorophenoxyacetyl)-piperazin-1-yl]-6-(3-methoxy-4-benzyloxyphenyl)-pyrido(3,2-d)pyrimidine], the half-inhibitory concentration (IC50) was > 10000 nM.

With `COc1c(C)cc(-c2ccc3nc(N)nc(N4CCN(C(=O)COc5ccc(Cl)cc5)CC4)c3n2)cc1C` [Example 502, 2-amino-4-[N-(4-chlorophenoxyacetyl)-piperazin-1-yl]-6-(3,5-dimethyl-4-methoxyphenyl)-pyrido(3,2-d)pyrimidine], the IC50 turned out to be 78 nM.

`N#CCOc1ccc(-c2ccc3nc(N)nc(N4CCN(C(=O)COc5ccc(Cl)cc5)CC4)c3n2)cc1` [Example 503, 2-amino-4-[N-(4-chlorophenoxyacetyl)-piperazin-1-yl]-6-(4-cyano-methoxyphenyl)-pyrido(3,2-d)pyrimidine]: the IC50 came to 20 nM.

`CC(=O)Oc1ccc(-c2ccc3nc(N)nc(N4CCN(C(=O)COc5ccc(Cl)cc5)CC4)c3n2)cc1` [Example 504, 2-amino-4-[N-(4-chlorophenoxyacetyl)-piperazin-1-yl]-6-(4-acetoxy-phenyl)-pyrido(3,2-d)pyrimidine]: the IC50 is 50 nM.

As for `COc1ccc(-c2ccc3nc(N)nc(N4CCN(C(=O)COc5ccc(Cl)cc5)CC4)c3n2)c(OC)c1` [Example 505, 2-amino-4-[N-(4-chlorophenoxyacetyl)-piperazin-1-yl]-6-(2,4-dimethoxyphenyl)-pyrido(3,2-d)pyrimidine], the IC50 was found to be 72 nM.

Turning to `COc1ccc(OC)c(-c2ccc3nc(N)nc(N4CCN(C(=O)COc5ccc(Cl)cc5)CC4)c3n2)c1` [Example 506, 2-amino-4-[N-(4-chlorophenoxyacetyl)-piperazin-1-yl]-6-(2,5-dimethoxyphenyl)-pyrido(3,2-d)pyrimidine], the IC50 was 690 nM.

Consider `Cc1ccc(-c2ccc3nc(N)nc(N4CCN(C(=O)COc5ccc(Cl)cc5)CC4)c3n2)cc1N` [Example 507, 2-amino-4-[N-(4-chlorophenoxyacetyl)-piperazin-1-yl]-6-(3-amino-4-methylphenyl)-pyrido(3,2-d)pyrimidine], for which the IC50 amounted to 29 nM.

For the compound `CCc1ccc(-c2ccc3nc(N)nc(N4CCN(C(=O)COc5ccc(Cl)cc5)CC4)c3n2)cc1` [Example 508, 2-amino-4-[N-(4-chlorophenoxyacetyl)-piperazin-1-yl]-6-(4-ethylphenyl)-pyrido(3,2-d)pyrimidine], the IC50 is 12 nM.

For the compound `COc1ccc(-c2ccc3nc(N)nc(N4CCN(C(=O)COc5ccc(Cl)cc5)CC4)c3n2)cc1C` [Example 509, 2-amino-4-[N-(4-chlorophenoxyacetyl)-piperazin-1-yl]-6-(3-methyl-4-methoxyphenyl)-pyrido(3,2-d)pyrimidine], the IC50 worked out at 31 nM.

For `CCOC(=O)c1ccc(-c2ccc3nc(N)nc(N4CCN(C(=O)COc5ccc(Cl)cc5)CC4)c3n2)cc1` [Example 510, 2-amino-4-[N-(4-chlorophenoxyacetyl)-piperazin-1-yl]-6-(4-ethoxycarbonylphenyl)-pyrido(3,2-d)pyrimidine], the IC50 worked out at 32 nM.

Turning to `Cc1csc(-c2ccc3nc(N)nc(N4CCN(C(=O)COc5ccc(Cl)cc5)CC4)c3n2)c1` [Example 511, 2-amino-4-[N-(4-chlorophenoxyacetyl)-piperazin-1-yl]-6-(4-methyl-2-thienyl)-pyrido(3,2-d)pyrimidine], the IC50 amounted to 54 nM.

Take `Cc1ccccc1-c1ccc2nc(N)nc(N3CCN(C(=O)COc4ccc(Cl)cc4)CC3)c2n1` [Example 512, 2-amino-4-[N-(4-chlorophenoxyacetyl)-piperazin-1-yl]-6-(2-methyl-phenyl)-pyrido(3,2-d)pyrimidine]: the IC50 worked out at 8 nM.

With `Nc1nc(N2CCN(C(=O)COc3ccc(Cl)cc3)CC2)c2nc(-c3ccc(OCc4ccccc4)c(F)c3)ccc2n1` [Example 513, 2-amino-4-[N-(4-chlorophenoxyacetyl)-piperazin-1-yl]-6-(3-fluoro-4-benzyloxy-phenyl)-pyrido(3,2-d)pyrimidine], the IC50 was > 10000 nM.

With `COc1cc(-c2ccc3nc(N)nc(N4CCN(C(=O)COc5ccc(Cl)cc5)CC4)c3n2)ccc1N` [Example 514, 2-amino-4-[N-(4-chlorophenoxyacetyl)-piperazin-1-yl]-6-(3-methoxy-4-amino-phenyl)-pyrido(3,2-d)pyrimidine], the IC50 was determined as 71 nM.

For the compound `Cc1ccc(-c2ccc3nc(N)nc(N4CCN(C(=O)COc5ccc(Cl)cc5)CC4)c3n2)cc1C` [Example 516, 2-amino-4-[N-(4-chlorophenoxyacetyl)-piperazin-1-yl]-6-(3,4-dimethyl-phenyl)-pyrido(3,2-d)pyrimidine], the IC50 came to 56 nM.

Regarding `COc1ccc(-c2ccc3nc(N)nc(N4CCN(C(=O)COc5ccc(Cl)cc5)CC4)c3n2)cc1Cl` [Example 517], the IC50 was 12 nM.

As to `Nc1nc(N2CCN(C(=O)C3CCc4ccccc4O3)CC2)c2nc(-c3ccc(F)cc3)ccc2n1` (stereo not drawn) [Example 524, [4-(2-amino-6-(4-fluorophenyl)pyrido[3,2-d]pyrimidin-4-yl)piperazin-1-yl]chroman-2-ylmethanone], the IC50 is 225 nM.

For `Cc1cccc(NC(=O)N2CCN(c3nc(C)nc4ccc(-c5ccc(F)cc5)nc34)CC2)c1` [Example 531, 2-methyl-4-[N-(3-methylphenylcarbamoyl)piperazin-1-yl]-6-(4-fluorophenyl)-pyrido[3,2-d]pyrimidine], the IC50 stood at 84 nM.

`Cc1cccc(NC(=O)N2CCN(c3nc(-c4ccccc4)nc4ccc(-c5ccc(F)cc5)nc34)CC2)c1` [Example 533, 2-phenyl-4-[N-(3-methylphenylcarbamoyl)piperazin-1-yl]-6-(4-fluorophenyl)-pyrido[3,2-d]pyrimidine]: the IC50 was determined as 2600 nM.

Turning to `Cc1cccc(NC(=O)N2CCN(c3nc(CN(C)C)nc4ccc(-c5ccc(F)cc5)nc34)CC2)c1` [Example 537, 2-(N,N-dimethylamino)methyl-4-[N-(3-methylphenylcarbamoyl)piperazin-1-yl]-6-(4-fluorophenyl)-pyrido[3,2-d]pyrimidine], the IC50 came to 3300 nM.

Take `COCCNCc1nc(N2CCN(C(=O)Nc3cccc(C)c3)CC2)c2nc(-c3ccc(F)cc3)ccc2n1` [Example 538, 2-(N-methoxyethylamino)methyl-4-[N-(3-methylphenylcarbamoyl)piperazin-1-yl]-6-(4-fluorophenyl)-pyrido[3,2-d]pyrimidine]: the IC50 was 340 nM.

`Cc1cccc(NC(=O)N2CCN(c3nc(CNC4CC4)nc4ccc(-c5ccc(F)cc5)nc34)CC2)c1` [Example 539, 2-(N-cyclopropylamino)methyl-4-[N-(3-methylphenylcarbamoyl)piperazin-1-yl]-6-(4-fluorophenyl)-pyrido[3,2-d]pyrimidine]: the IC50 is 700 nM.

For the compound `Cc1cccc(NC(=O)N2CCN(c3nc(N)nc4ccc(Cl)nc34)CC2)c1` [Example 541, 2-amino-4-[(3-methylphenylcarbamoyl)-piperazin-1-yl]-6-chloro-pyrido[3,2-d]pyrimidine], the concentration for half-maximal inhibition (IC50) turned out to be 60 nM.

`Cc1cccc(NC(=O)N2CCN(c3nc(N)nc4ccc(-c5ccncc5)nc34)CC2)c1` [Example 542, 2-amino-4-[(3-methylphenylcarbamoyl)-piperazin-1-yl]-6-(4-pyridyl)-pyrido[3,2-d]pyrimidine]: the IC50 was determined as 5 nM.

As to `Cc1cccc(NC(=O)N2CCN(c3nc(N)nc4ccc(-c5ccc(C#N)cc5)nc34)CC2)c1` [Example 543, 2-amino-4-[(3-methylphenylcarbamoyl)-piperazin-1-yl]-6-(4-cyano-phenyl)-pyrido[3,2-d]pyrimidine], the IC50 came to 30 nM.

`Cc1cccc(NC(=O)N2CCN(c3nc(N)nc4ccc(-c5cccc(C#N)c5)nc34)CC2)c1` [Example 545, 2-amino-4-[(3-methylphenylcarbamoyl)-piperazin-1-yl]-6-(3-cyanophenyl)-pyrido[3,2-d]pyrimidine]: the IC50 is 30 nM.

`Cc1cccc(NC(=O)N2CCN(c3nc(N)nc4ccc(-c5ccccc5C#N)nc34)CC2)c1` [Example 546, 2-amino-4-[(3-methylphenylcarbamoyl)-piperazin-1-yl]-6-(2-cyano-phenyl)-pyrido[3,2-d]pyrimidine]: the IC50 was 4 nM.

For `Cc1cccc(NC(=O)N2CCN(c3nc(N)nc4ccc(-c5ccccc5F)nc34)CC2)c1` [Example 547, 2-amino-4-[(3-methylphenylcarbamoyl)-piperazin-1-yl]-6-(2-fluoro-phenyl)-pyrido[3,2-d]pyrimidine], the IC50 was 60 nM.
